Source: US20240398757A1 (COCRYSTAL PHARMA, INC., priority 2022, published 2024)

The compounds below were run against T1, SARS2 protease (Severe acute respiratory syndrome coronavirus 2, UniProt P0DTD1) (assay: SARS-CoV-2 protease inhibition assay (SARS2 FRET protease assay)). Settings: IC50 (μM), SARS2 protease 30 nM, peptide substrate 1.3 μM, 120 minutes at 37° C., compounds 20 μM to 0.075 nM.
T1 construct: SARS2 protease was added to a final concentration of 30 nM
Type: biochemical

Going from `CCNC(=O)C(=O)[C@H](C[C@@H]1CCNC1=O)NC(=O)[C@H](Cc1ccc(Cl)c(Cl)c1)NC(=O)OC(c1ccccc1)C(C)(C)c1cccc(Cl)c1` (stereo partly drawn) [Compound A280, 2-(3-chlorophenyl)-2-methyl-1-phenylpropyl ((S)-3-(3,4-dichlorophenyl)-1-(((S)-4-(ethylamino)-3,4-dioxo-1-((S)-2-oxopyrrolidin-3-yl)butan-2-yl)amino)-1-oxopropan-2-yl)carbamate] to `CCNC(=O)C(=O)[C@H](C[C@@H]1CCNC1=O)NC(=O)[C@H](Cc1cccc(Cl)c1)NC(=O)OC(c1ccccc1)C(F)(F)c1cccc(Cl)c1` (stereo partly drawn) [Compound A287], the IC50 falls from 4.5 µM to 1.06 µM (4.2-fold).

Going from `CCC1(C[C@H](NC(=O)OC(c2ccccc2)C(F)(F)c2cccc(Cl)c2)C(=O)N[C@@H](C[C@@H]2CCNC2=O)C(=O)C(=O)NC2CC2)CC1` (stereo partly drawn) [Compound A281, 2-(3-chlorophenyl)-2,2-difluoro-1-phenylethyl ((S)-1-(((S)-4-(cyclopropylamino)-3,4-dioxo-1-((S)-2-oxopyrrolidin-3-yl)butan-2-yl)amino)-3-(1-ethylcyclopropyl)-1-oxopropan-2-yl)carbamate] to `CC[C@@H](C)C[C@H](NC(=O)O[C@H](c1ccccc1)C(F)(F)c1cccc(Cl)c1)C(=O)N[C@@H](C[C@@H]1CCNC1=O)C(=O)C(=O)NC1CC1` [Compound A311], the IC50 rises from 0.001 µM to 0.181 µM (180-fold). The first is the more potent here.

First: CC(C)C[C@H](NC(=O)O[C@@H](c1ccccc1)C(F)(F)c1cccc(Cl)c1)C(=O)N[C@@H](C[C@@H]1CCNC1=O)C(=O)C(N)=O [Compound A282, (S)-2-(3-chlorophenyl)-2,2-difluoro-1-phenylethyl ((S)-1-(((S)-4-amino-3,4-dioxo-1-((S)-2-oxopyrrolidin-3-yl)butan-2-yl)amino)-4-methyl-1-oxopentan-2-yl)carbamate]
Second: CC(C)C[C@H](NC(=O)O[C@@H](c1ccccc1)C(F)(F)c1cccc(Cl)c1)C(=O)N[C@@H](C[C@@H]1CCNC1=O)C(=O)C(=O)NC1CC1 [Compound A317]
The IC50 of the first is 2.5-fold higher: 0.001 µM for the first, 0.0004 µM for the second.

Going from `CCCC[C@H](NC(=O)O[C@@H](c1ccccc1)C(F)(F)c1cccc(F)c1)C(=O)N[C@@H](C[C@@H]1CCNC1=O)C(=O)C(=O)NCC` [Compound A283, (S)-2,2-difluoro-2-(3-fluorophenyl)-1-phenylethyl ((S)-1-(((S)-4-(ethylamino)-3,4-dioxo-1-((S)-2-oxopyrrolidin-3-yl)butan-2-yl)amino)-1-oxohexan-2-yl)carbamate] to `CCCC[C@H](NC(=O)O[C@H](c1ccccc1)C(F)(F)c1cccc(F)c1)C(=O)N[C@@H](C[C@@H]1CCNC1=O)C(=O)C(=O)NCC` [Compound A284, (R)-2,2-difluoro-2-(3-fluorophenyl)-1-phenylethyl ((S)-1-(((S)-4-(ethylamino)-3,4-dioxo-1-((S)-2-oxopyrrolidin-3-yl)butan-2-yl)amino)-1-oxohexan-2-yl)carbamate], the IC50 falls from 0.122 µM to 0.008 µM (15-fold). The second is the more potent here.

Compared with `CCCC[C@H](NC(=O)OC(c1ccccc1)C(F)(F)c1cccc(Cl)c1)C(=O)N[C@@H](Cc1ccc[nH]c1=O)C(=O)C(=O)NC1CC1` (stereo partly drawn) [Compound A285, 2-(3-chlorophenyl)-2,2-difluoro-1-phenylethyl ((S)-1-(((S)-4-(cyclopropylamino)-3,4-dioxo-1-(2-oxo-1,2-dihydropyridin-3-yl)butan-2-yl)amino)-1-oxohexan-2-yl)carbamate], `CCCC[C@H](NC(=O)OC(c1ccccc1)C(F)(F)c1cccc(Cl)c1)C(=O)NC(CN1CCNC1=O)C(=O)C(=O)NC1CC1` (stereo partly drawn) [Compound A306] is 3.4-fold higher in IC50: 1.3 µM for the first, 4.41 µM for the second.

Compared with `O=C[C@H](C[C@@H]1CCNC1=O)NC(=O)[C@H](Cc1cccc(Cl)c1)NC(=O)OC(c1ccccc1)C(F)(F)c1cccc(Cl)c1` (stereo partly drawn) [Compound A286], `CC(C)C[C@H](NC(=O)OC(c1ccccc1)C(F)(F)c1cccc(C2CCC2)c1)C(=O)N[C@H](C=O)C[C@@H]1CCNC1=O` (stereo partly drawn) [Compound A314] is 10-fold higher in IC50: 0.0001 µM for the first, 0.001 µM for the second. The first is the more potent here.

First: CC(C)C[C@H](NC(=O)O[C@@H](c1ccccc1)C(F)(F)c1cccc(C2CC2)c1)C(=O)N[C@@H](C[C@@H]1CCNC1=O)C(=O)C(=O)NC1CC1 [Compound A288]
Second: CC(C)C[C@H](NC(=O)OC(c1ccccc1)C(F)(F)c1cccc(C2CCC2)c1)C(=O)N[C@@H](C[C@@H]1CCNC1=O)C(=O)C(=O)NC1CC1 (stereo partly drawn) [Compound A315]
The IC50 of the first is 5.1-fold higher: 0.26 µM for the first, 0.051 µM for the second. The second is the more potent here.

First: CCCC[C@H](NC(=O)OC(c1ccccc1)C(F)(F)c1cccc(Cl)c1)C(=O)N[C@H](C=O)Cc1ccc[nH]c1=O (stereo partly drawn) [Compound A292, 2-(3-chlorophenyl)-2,2-difluoro-1-phenylethyl ((S)-1-oxo-1-(((S)-1-oxo-3-(2-oxo-1,2-dihydropyridin-3-yl)propan-2-yl)amino)hexan-2-yl)carbamate]
Second: CCCC[C@H](NC(=O)OC(c1ccccc1)C(F)(F)c1cccc(Cl)c1)C(=O)N[C@@H](C[C@@H]1CCNC1=O)C(=O)C(=O)NCCNCC (stereo partly drawn) [Compound A294]
The IC50 of the first is 3.1-fold lower: 0.159 µM for the first, 0.486 µM for the second.

Compared with `CCOP(=O)(OCC)C(O)[C@H](C[C@@H]1CCNC1=O)NC(=O)[C@H](CC1CCCCC1)NC(=O)O[C@H](c1ccccc1)C(F)(F)c1cccc(Cl)c1` (stereo partly drawn) [Compound A293], `CC[C@@H](C)C[C@H](NC(=O)O[C@@H](c1ccccc1)C(F)(F)c1cccc(Cl)c1)C(=O)N[C@@H](C[C@@H]1CCNC1=O)C(=O)C(=O)NC1CC1` [Compound A312] is 25-fold lower in IC50: 16.1 µM for the first, 0.64 µM for the second.

Compared with `CCCC[C@H](NC(=O)O[C@@H](c1cccnc1)C(F)(F)c1cccc(Cl)c1)C(=O)N[C@@H](C[C@@H]1CCNC1=O)C(=O)C(=O)NC1CC1` [Compound A301], `CCCC[C@H](NC(=O)O[C@@H](c1ccncc1)C(F)(F)c1cccc(Cl)c1)C(=O)N[C@@H](C[C@@H]1CCNC1=O)C(=O)C(=O)NC1CC1` [Compound A303] is 1.5-fold higher in IC50: 0.0362 µM for the first, 0.055 µM for the second.

Going from `CCCC[C@H](NC(=O)OC(c1ccn(C)n1)C(F)(F)c1cccc(Cl)c1)C(=O)N[C@H](C=O)C[C@@H]1CCNC1=O` (stereo partly drawn) [Compound A305] to `CCCC[C@H](NC(=O)OC(c1ccn(C)n1)C(F)(F)c1cccc(Cl)c1)C(=O)N[C@@H](C[C@@H]1CCNC1=O)C(=O)C(=O)NCC` (stereo partly drawn) [Compound A313], the IC50 rises from 0.0004 µM to 0.139 µM (350-fold). The first is the more potent here.

First: CC(C)C[C@H](NC(=O)OC(c1ccccc1)C(F)(F)c1cccc(Cl)c1)C(=O)NC(CN1CCNC1=O)C(=O)C(=O)NC1CC1 (stereo partly drawn) [Compound A307]
Second: CCNC(=O)C(=O)[C@H](C[C@@H]1CCNC1=O)NC(=O)[C@@H](CC1(C)CCC1)NC(=O)O[C@@H](c1ccccc1)C(F)(F)c1cccc(Cl)c1 [Compound A324]
The IC50 of the first is 15000-fold higher: 4.44 µM for the first, 0.0003 µM for the second. The second is the more potent here.

Going from `CCCC[C@H](NC(=O)OC(c1cnn(C)c1)C(F)(F)c1cccc(Cl)c1)C(=O)N[C@@H](C[C@@H]1CCNC1=O)C(=O)C(=O)NCC` (stereo partly drawn) [Compound A319] to `CCNC(=O)C(=O)[C@H](C[C@@H]1CCNC1=O)NC(=O)[C@@H](CC1(CC)CCC1)NC(=O)O[C@@H](c1ccccc1)C(F)(F)c1cccc(Cl)c1` [Compound A320], the IC50 falls from 0.001 µM to 0.0001 µM (10-fold).

First: CCNC(=O)C(=O)[C@H](C[C@@H]1CCNC1=O)NC(=O)[C@H](CC1(CC)CCC1)NC(=O)O[C@H](c1ccccc1)C(F)(F)c1cccc(Cl)c1 [Compound A322]
Second: CCNC(=O)C(=O)[C@H](C[C@@H]1CCNC1=O)NC(=O)[C@H](CC1(CC)CCC1)NC(=O)O[C@@H](c1ccccc1)C(F)(F)c1cccc(Cl)c1 [Compound A323]
The IC50 of the first is 2.2-fold lower: 1.72 µM for the first, 3.84 µM for the second. The first is the more potent here.

Going from `CCNC(=O)C(=O)[C@H](C[C@@H]1CCNC1=O)NC(=O)[C@H](CC1(C)CCC1)NC(=O)O[C@H](c1ccccc1)C(F)(F)c1cccc(Cl)c1` [Compound A326] to `CCNC(=O)C(=O)[C@H](C[C@@H]1CCNC1=O)NC(=O)[C@H](CC1(C)CCC1)NC(=O)O[C@@H](c1ccccc1)C(F)(F)c1cccc(Cl)c1` [Compound A327], the IC50 rises from 0.367 µM to 5.33 µM (15-fold). The first is the more potent here.
